Patent US20250057890A1, “FUNCTIONAL FOOD CONTAINING BONITO-DERIVED EXTRACT FOR PREVENTING OR AMELIORATING NEUROPSYCHIATRIC DISORDERS” (MARUHACHI MURAMATSU, INC., priority 2022, published 2025)

Columns and labels:
[1] = test system: MG6 cells from mouse brain microglia; assay: Anti-inflammatory action: TNF-α production in LPS-activated MG6 cells (ELISA); assay type: cell-based; settings: for anti-inflammatory activity: MG6 cells, LPS, fractions or single components; for anti-inflammatory action compared to katsuobushi extract: known components of katsuobushi, each in isolation
Protocol: MG6 cells from mouse brain microglia were purchased from the RIKEN BioResource Research Center (BRC), and the anti-inflammatory action of various extracts, including from katsuobushi, were assayed (see FIG. 1). First, a 96-well plate was seeded with the MG6 cells (5×10^3 cells/well·90 μL), and a culture was started in a CO2 incubator (37° C., CO2 level 5%). Next the various extracts were added to the wells after 0.5 hours, followed by the addition of lipopolysaccharide (LPS) 1 hour after that to activate the MG6 cells and induce an inflammatory state. After 6 hours, 10 μL of culture supernatant was collected from each well, after which 10 μL of a viable cell counting reagent (WST-8) was added to each well, and absorbance at 450 nm (reference wavelength 630 nm) was measured with a plate reader after 1 hour and 2 hours.
The previously collected culture supernatant was diluted 25-fold with a buffer, and the levels of TNF-α, a type of inflammatory cytokine, produced in the culture supernatant was measured via ELISA (using ELISA MAX™ Deluxe Set Mouth TNF-α, a kit manufactured by BioLegend). In the LPS addition test section, anti-inflammatory action was determined to be higher when the TNF-α production levels were more reduced through the prior addition of the various extracts, and lower the less said levels were reduced.

[2] = test system: rat brain capillary endothelial cells (RBECs, primary cells); assay: Protein expression of tight-junction-associated molecules (claudin-5 and occludin) in RBECs, western blot; assay type: cell-based
Protocol: First, a 48-well plate was seeded with the RBECs (2×10^5 cells/well·440 μL), and a culture was started in a CO2 incubator (37° C., CO2 level 5%). Next, after 72 hours, the medium in each well was replaced with an evaluation medium prepared by adding the various extracts, and, 24 hours and 72 hours after that, RNA and protein were recovered from the cultured cells a NucleoSpin RNA/Protein kit (Takara Bio) according to the protocol of the kit. The extracted protein was evaluated via western blot, and DNA obtained by reverse transcription of the extracted RNA was evaluated via real-time PCR.
(§1) First, a 48-well plate was seeded with the RBECs (2×10^5 cells/well·440 μL), and a culture was started in a CO2 incubator (37° C., CO2 level 5%). […] The extracted protein was evaluated via western blot, and DNA obtained by reverse transcription of the extracted RNA was evaluated via real-time PCR (real-time PCR data not shown here).
as §1

[3] = test system: microglia in the hippocampus; settings: Liang et al., International Journal of Neuroscience, 2022; cited from earlier work

Structure (SMILES)	anti-inflammatory activity [1]	anti-inflammatory action compared to katsuobushi extract [1]	other results
Nc1ncnc2c1ncn2[C@@H]1O[C@H](COP(=O)(O)O)[C@@H](O)[C@H]1O [AMP, adenosine 5′-monophosphate]	anti-inflammatory activity was observed	–	–
Cn1cncc1C[C@H](NC(=O)CCN)C(=O)O [anserine]	–	none of these substances in isolation showed anti-inflammatory action comparable to katsuobushi extract	–
C[N+](C)(C)CC(=O)O [betaine]	–	none of these substances in isolation showed anti-inflammatory action comparable to katsuobushi extract	–
NCCC(=O)N[C@@H](Cc1cnc[nH]1)C(=O)O [carnosine]	–	none of these substances in isolation showed anti-inflammatory action comparable to katsuobushi extract	–
CN(CC(=O)O)C(=N)N [creatine]	–	none of these substances in isolation showed anti-inflammatory action comparable to katsuobushi extract	–
O=C(O)CO [glycolic acid]	showed anti-inflammatory activity	–	–
N[C@@H](Cc1c[nH]cn1)C(=O)O [histidine]	–	none of these substances in isolation showed anti-inflammatory action comparable to katsuobushi extract	claudin-5 protein expression ([2]; added concentration 0.836 mg/ml, after 24 hours, compared to serum-free medium): elevated; expression of tight-junction-associated molecules (claudin-5 and occludin) at the genetic level and the protein level ([2]; rat cerebrovascular endothelial cells): elevated expression
O=c1[nH]cnc2nc[nH]c12 [hypoxanthine]	anti-inflammatory activity was observed	–	–
CC(O)C(=O)O (centres unmarked) [lactic acid]	showed anti-inflammatory activity	–	anti-inflammatory activity (literature) [3]: already been reported to have anti-inflammatory activity
O=C[C@H](O)[C@H](O)[C@H](O)COP(=O)(O)O [ribose 5-phosphate]	anti-inflammatory activity was observed	–	–
O=C(O)CCC(=O)O [succinic acid]	anti-inflammatory activity was observed	–	–
